{
  "source": "ChEMBL document CHEMBL5316339",
  "about": "“Discovery of a Series of Substituted 1H-((1,2,3-Triazol-4-yl)methoxy)pyrimidines as Brain Penetrants and Potent GluN2B-Selective Negative Allosteric Modulators” (J Med Chem, 2023)",
  "key": {"Cytochrome P450 2C19": {"target": "Cytochrome P450 2C19 (Homo sapiens, UniProt P33261)", "sequence (P33261 whole entry)": "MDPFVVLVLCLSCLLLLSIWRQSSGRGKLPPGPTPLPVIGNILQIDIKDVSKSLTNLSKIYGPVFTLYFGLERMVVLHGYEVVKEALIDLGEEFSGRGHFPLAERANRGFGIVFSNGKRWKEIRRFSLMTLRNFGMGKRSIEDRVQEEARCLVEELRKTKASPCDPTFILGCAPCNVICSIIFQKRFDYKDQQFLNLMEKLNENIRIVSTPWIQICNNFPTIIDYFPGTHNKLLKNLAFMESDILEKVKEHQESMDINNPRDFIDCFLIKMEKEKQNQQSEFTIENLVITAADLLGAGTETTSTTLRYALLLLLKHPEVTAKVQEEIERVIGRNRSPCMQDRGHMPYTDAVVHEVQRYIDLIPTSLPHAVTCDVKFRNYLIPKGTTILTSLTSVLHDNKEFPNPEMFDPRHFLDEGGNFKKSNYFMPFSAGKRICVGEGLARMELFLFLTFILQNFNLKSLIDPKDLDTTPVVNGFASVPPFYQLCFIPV", "assay": "Inhibition of CYP2C19 in human liver microsomes incubated for 10 mins by LC-MS/MS analysis", "assay_type": "ADME, Microsome"}, "[1]": {"assay": "Volume of distribution at steady state in Sprague-Dawley rat at 5 mg/kg, po or 1 mg/kg, iv measured for 24 hrs by LC-MS/MS analysis", "assay_type": "ADME, organism-based", "conditions": "in vivo"}, "[2]": {"assay": "Plasma protein binding in Sprague-Dawley rat assessed as free fraction", "assay_type": "ADME, cell-free"}, "Cytochrome P450 2C8": {"target": "T1, Cytochrome P450 2C8 (Homo sapiens, UniProt P10632)", "T1 sequence (P10632 whole entry)": "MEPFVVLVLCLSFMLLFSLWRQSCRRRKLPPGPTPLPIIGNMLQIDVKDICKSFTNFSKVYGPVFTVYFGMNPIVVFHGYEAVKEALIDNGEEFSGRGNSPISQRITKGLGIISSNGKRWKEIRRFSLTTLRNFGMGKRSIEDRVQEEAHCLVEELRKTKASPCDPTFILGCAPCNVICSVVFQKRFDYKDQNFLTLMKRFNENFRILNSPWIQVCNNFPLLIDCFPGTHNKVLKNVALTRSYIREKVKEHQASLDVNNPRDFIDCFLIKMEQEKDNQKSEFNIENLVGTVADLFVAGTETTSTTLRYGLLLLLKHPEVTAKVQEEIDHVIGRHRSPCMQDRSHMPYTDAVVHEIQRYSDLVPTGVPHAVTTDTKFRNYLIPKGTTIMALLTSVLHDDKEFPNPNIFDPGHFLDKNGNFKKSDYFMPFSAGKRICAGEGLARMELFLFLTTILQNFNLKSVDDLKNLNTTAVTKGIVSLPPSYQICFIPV", "assay": "Inhibition of CYP2C8 in human liver microsomes incubated for 10 mins by LC-MS/MS analysis", "assay_type": "ADME, Microsome"}, "[3]": {"assay": "Unbound brain to plasma concentration ratio in Sprague-Dawley rat at 10 mg/kg, po measured after 0.25 hrs", "assay_type": "ADME, organism-based", "conditions": "brain and plasma, read-out: K(p,uu,brain)"}, "[4]": {"assay": "Unbound brain to plasma concentration ratio in Sprague-Dawley rat at 10 mg/kg, po measured after 0.5 hrs", "assay_type": "ADME, organism-based", "conditions": "brain and plasma, read-out: K(p,uu,brain)"}, "[5]": {"assay": "Drug metabolism in human liver microsomes assessed as O-dearylation mediated 1-(4-chloro-3-(difluoromethoxy)phenyl)-1H-1,2,3-triazole-4-carboxylic acid metabolite formation at 0.1 uM in presence of NADPH", "assay_type": "ADME, Microsome"}, "[6]": {"target": "Glutamate NMDA receptor; GRIN1/GRIN2B (Homo sapiens, UniProt Q05586+Q13224)", "sequence (Q13224 whole entry, other chains not shown)": "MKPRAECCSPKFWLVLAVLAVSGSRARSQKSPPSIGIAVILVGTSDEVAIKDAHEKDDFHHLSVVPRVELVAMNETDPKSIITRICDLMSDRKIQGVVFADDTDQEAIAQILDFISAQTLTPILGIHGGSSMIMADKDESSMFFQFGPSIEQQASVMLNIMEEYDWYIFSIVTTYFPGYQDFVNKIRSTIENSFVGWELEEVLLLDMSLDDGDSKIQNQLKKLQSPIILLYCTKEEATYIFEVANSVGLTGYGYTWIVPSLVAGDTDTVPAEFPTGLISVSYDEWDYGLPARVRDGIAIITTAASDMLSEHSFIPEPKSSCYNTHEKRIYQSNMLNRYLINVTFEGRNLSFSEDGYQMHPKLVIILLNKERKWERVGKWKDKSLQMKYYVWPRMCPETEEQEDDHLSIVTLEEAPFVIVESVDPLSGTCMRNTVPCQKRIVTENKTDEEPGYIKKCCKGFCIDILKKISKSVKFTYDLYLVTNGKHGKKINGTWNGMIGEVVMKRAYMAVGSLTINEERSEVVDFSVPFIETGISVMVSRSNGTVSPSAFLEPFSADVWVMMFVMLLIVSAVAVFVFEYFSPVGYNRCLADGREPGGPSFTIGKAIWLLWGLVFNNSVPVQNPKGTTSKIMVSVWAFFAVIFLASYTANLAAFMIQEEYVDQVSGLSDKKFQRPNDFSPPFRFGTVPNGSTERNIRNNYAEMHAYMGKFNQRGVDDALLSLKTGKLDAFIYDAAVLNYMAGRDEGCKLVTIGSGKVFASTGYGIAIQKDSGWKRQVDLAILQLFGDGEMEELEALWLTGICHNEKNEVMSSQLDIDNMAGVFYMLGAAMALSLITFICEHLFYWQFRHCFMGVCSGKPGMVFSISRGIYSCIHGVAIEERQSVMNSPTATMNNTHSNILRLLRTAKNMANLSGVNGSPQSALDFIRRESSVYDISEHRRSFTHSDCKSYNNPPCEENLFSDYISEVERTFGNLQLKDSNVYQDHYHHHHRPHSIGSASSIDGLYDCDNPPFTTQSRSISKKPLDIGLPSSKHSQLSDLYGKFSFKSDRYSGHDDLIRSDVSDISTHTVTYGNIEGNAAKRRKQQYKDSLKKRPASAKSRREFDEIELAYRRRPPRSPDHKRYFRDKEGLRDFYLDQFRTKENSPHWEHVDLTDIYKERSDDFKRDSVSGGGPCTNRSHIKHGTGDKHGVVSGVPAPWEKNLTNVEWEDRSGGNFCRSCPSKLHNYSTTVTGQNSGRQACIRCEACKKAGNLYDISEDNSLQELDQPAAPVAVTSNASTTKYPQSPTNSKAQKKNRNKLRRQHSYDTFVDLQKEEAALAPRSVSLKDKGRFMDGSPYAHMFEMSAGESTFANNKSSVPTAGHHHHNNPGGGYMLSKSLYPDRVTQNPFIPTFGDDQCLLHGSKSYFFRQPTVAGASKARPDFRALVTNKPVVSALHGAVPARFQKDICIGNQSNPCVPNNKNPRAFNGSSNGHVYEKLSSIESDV", "assay": "Negative allosteric modulation of human GluN1A/GluN2B receptor expressed in T-REX-CHO cells preincubated for 5 mins followed by glutamate and glycine addition and measured after 5 mins by FLIPR assay", "assay_type": "cell-based"}, "[7]": {"assay": "Unbound brain to plasma concentration ratio in Sprague-Dawley rat at 10 mg/kg, po measured after 2 hrs", "assay_type": "ADME, organism-based", "conditions": "brain and plasma, read-out: K(p,uu,brain)"}, "[8]": {"assay": "Drug metabolism in rat hepatocytes at 0.01 to 0.1 uM incubated for 4 hrs", "assay_type": "ADME, cell-based, Hepatocyte", "conditions": "dose 0.01-0.1 µM"}, "Brain [9]": {"system": "Brain", "assay": "Ex vivo receptor occupancy at GluN2B receptor in Sprague-Dawley rat brain at 10 mg/kg, po measured after 2 hrs by 3 [3H] 1-(azetidin- 1-yl-2[6-(4-fluoro-3-methyl-pheny)pyrrolo[3,2-b]pyridin-1-yl]ethanon based autoradiography relative to control", "assay_type": "functional"}, "[10]": {"assay": "Drug concentration in Sprague-Dawley rat brain at 10 mg/kg, po measured after 0.25 hrs", "assay_type": "ADME, organism-based", "conditions": "read-out: Ct"}, "[11]": {"assay": "Drug concentration in Sprague-Dawley rat brain assessed as free fraction", "assay_type": "ADME, tissue-based"}, "[12]": {"assay": "Drug metabolism in rat liver microsomes at 0.014 to 0.37 uM incubated for 60 mins", "assay_type": "ADME, Microsome", "conditions": "1 h, dose 0.014-0.37 µM"}, "[13]": {"target": "Glutamate receptor ionotropic, NMDA 2D (Homo sapiens, UniProt O15399+Q05586)", "assay": "Inhibition of human GluN2D receptor by FLIPR assay"}, "Brain [14]": {"system": "Brain", "assay": "Ex vivo receptor occupancy at GluN2B receptor in Sprague-Dawley rat brain at 10 mg/kg, po measured after 0.5 hrs by 3 [3H] 1-(azetidin- 1-yl-2[6-(4-fluoro-3-methyl-pheny)pyrrolo[3,2-b]pyridin-1-yl]ethanon based autoradiography relative to control", "assay_type": "functional"}, "[15]": {"assay": "Drug concentration in Sprague-Dawley rat brain at 10 mg/kg, po measured after 0.5 hrs", "assay_type": "ADME, organism-based", "conditions": "read-out: Ct"}, "Cytochrome P450 2C9": {"target": "Cytochrome P450 2C9 (Homo sapiens, UniProt P11712)", "assay": "Inhibition of CYP2C9 in human liver microsomes incubated for 10 mins by LC-MS/MS analysis", "assay_type": "ADME, Microsome"}, "[16]": {"assay": "Oral bioavailability in Sprague-Dawley rat at 5 mg/kg measured for 24 hrs by LC-MS/MS analysis", "assay_type": "ADME, organism-based", "conditions": "in vivo"}, "[17]": {"target": "Glutamate receptor ionotropic, NMDA 2C (Homo sapiens, UniProt Q05586+Q14957)", "sequence (Q14957 whole entry, one chain of several)": "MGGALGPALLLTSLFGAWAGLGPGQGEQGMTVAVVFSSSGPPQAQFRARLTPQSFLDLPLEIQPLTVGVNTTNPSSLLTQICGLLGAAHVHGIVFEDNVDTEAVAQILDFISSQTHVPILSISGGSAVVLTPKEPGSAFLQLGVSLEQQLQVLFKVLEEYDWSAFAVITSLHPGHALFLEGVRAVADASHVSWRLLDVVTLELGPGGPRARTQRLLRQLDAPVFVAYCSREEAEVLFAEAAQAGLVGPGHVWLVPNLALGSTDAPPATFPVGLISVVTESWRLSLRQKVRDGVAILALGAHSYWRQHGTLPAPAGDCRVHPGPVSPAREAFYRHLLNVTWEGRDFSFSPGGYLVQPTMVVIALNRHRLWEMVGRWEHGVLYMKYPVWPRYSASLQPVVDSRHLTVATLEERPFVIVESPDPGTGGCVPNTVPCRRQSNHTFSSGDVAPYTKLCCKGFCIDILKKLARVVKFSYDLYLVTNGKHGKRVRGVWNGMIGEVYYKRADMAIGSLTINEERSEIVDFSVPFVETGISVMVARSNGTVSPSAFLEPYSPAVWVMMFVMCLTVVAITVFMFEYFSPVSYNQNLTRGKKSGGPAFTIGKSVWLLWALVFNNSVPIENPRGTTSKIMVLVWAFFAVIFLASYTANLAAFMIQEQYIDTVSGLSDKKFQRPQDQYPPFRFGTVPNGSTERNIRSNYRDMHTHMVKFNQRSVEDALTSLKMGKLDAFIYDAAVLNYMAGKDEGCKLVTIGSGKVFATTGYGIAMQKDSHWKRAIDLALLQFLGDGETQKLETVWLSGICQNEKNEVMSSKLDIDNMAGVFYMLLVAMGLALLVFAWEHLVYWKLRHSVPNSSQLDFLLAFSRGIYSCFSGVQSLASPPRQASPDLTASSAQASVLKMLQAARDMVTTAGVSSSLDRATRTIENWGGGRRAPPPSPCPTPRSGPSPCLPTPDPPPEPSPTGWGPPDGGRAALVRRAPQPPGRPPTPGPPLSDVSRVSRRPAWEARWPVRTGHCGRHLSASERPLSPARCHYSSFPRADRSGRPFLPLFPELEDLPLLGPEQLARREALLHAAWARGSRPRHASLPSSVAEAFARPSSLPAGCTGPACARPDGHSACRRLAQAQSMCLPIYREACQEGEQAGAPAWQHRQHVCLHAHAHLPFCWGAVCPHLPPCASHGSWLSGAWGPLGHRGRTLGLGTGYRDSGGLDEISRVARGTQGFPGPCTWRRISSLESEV", "assay": "Inhibition of human GluN2C receptor by FLIPR assay"}, "Brain [18]": {"system": "Brain", "assay": "Ex vivo receptor occupancy at GluN2B receptor in Sprague-Dawley rat brain at 10 mg/kg, po measured after 0.25 hrs by 3 [3H] 1-(azetidin- 1-yl-2[6-(4-fluoro-3-methyl-pheny)pyrrolo[3,2-b]pyridin-1-yl]ethanon based autoradiography relative to control", "assay_type": "functional"}, "Cytochrome P450 1A2": {"target": "T2, Cytochrome P450 1A2 (Homo sapiens, UniProt P05177)", "T2 sequence (P05177 whole entry)": "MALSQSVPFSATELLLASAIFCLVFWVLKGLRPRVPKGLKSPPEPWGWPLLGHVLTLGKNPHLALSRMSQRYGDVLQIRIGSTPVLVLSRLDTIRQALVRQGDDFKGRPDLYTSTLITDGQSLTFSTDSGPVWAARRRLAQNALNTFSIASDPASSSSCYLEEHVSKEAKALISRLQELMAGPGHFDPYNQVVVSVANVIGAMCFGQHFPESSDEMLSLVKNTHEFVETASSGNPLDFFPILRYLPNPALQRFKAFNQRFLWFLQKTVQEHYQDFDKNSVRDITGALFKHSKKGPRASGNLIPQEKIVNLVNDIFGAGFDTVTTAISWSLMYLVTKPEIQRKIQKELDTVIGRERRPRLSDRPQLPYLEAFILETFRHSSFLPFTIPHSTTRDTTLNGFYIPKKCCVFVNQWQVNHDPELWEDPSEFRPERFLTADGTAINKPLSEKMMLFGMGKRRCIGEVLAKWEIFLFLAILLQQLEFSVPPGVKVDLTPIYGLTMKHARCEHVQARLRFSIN", "assay": "Inhibition of CYP1A2 in human liver microsomes incubated for 10 mins by LC-MS/MS analysis", "assay_type": "ADME, Microsome"}, "[19]": {"target": "Voltage-gated inwardly rectifying potassium channel KCNH2 (Homo sapiens, UniProt Q12809)", "assay": "Displacement of [3H]dofetilide from human ERG expressed in HEK293 cells", "assay_type": "toxicity, cell-based"}, "[20]": {"assay": "Drug concentration in Sprague-Dawley rat plasma at 10 mg/kg, po measured after 0.5 hrs", "assay_type": "ADME, organism-based"}, "[21]": {"assay": "Cmax in Sprague-Dawley rat at 5 mg/kg, po measured for 24 hrs by LC-MS/MS analysis", "assay_type": "ADME, organism-based", "set-up": "time 24 hrs, dose 5 mg/kg, route po", "conditions": "in vivo"}, "[22]": {"assay": "Drug concentration in Sprague-Dawley rat plasma at 10 mg/kg, po measured after 0.25 hrs", "assay_type": "ADME, organism-based"}, "[23]": {"assay": "Drug concentration in Sprague-Dawley rat plasma at 10 mg/kg, po measured after 2 hrs", "assay_type": "ADME, organism-based"}, "Hippocampus": {"system": "Hippocampus", "assay": "Ex vivo receptor occupancy at GluN2B receptor in Sprague-Dawley rat brain hippocampus at 0.01 to 3 mg/kg, po measured after 2 hrs by 3 [3H] 1-(azetidin- 1-yl-2[6-(4-fluoro-3-methyl-pheny)pyrrolo[3,2-b]pyridin-1-yl]ethanon based autoradiography relative to control", "assay_type": "functional", "conditions": "dose 0.01-3 mg/kg"}, "MDR1 (P-gp)": {"system": "MDR1 (P-gp)", "assay": "Efflux ratio of apparent permeability from basolateral to apical side over apical to basolateral side in MDCK-MDR1 cells at 5 uM incubated for 60 mins by LC-MS/MS analysis", "assay_type": "ADME, cell-based, Canis lupus familiaris", "conditions": "dog"}, "Cytochrome P450 2D6": {"target": "Cytochrome P450 2D6 (Homo sapiens, UniProt P10635)", "assay": "Inhibition of CYP2D6 in human liver microsomes incubated for 10 mins by LC-MS/MS analysis", "assay_type": "ADME, Microsome"}, "[24]": {"assay": "Drug metabolism in human liver microsomes assessed as O-dearylation mediated (1-(4-chloro-3-(difluoromethoxy)phenyl)-1H-1,2,3-triazol-4-yl)methanol metabolite formation at 0.1 uM in presence of NADPH", "assay_type": "ADME, Microsome"}, "[25]": {"target": "Glutamate receptor ionotropic, NMDA 2A (Homo sapiens, UniProt Q05586+Q12879)", "sequence (Q12879 whole entry, one chain of several)": "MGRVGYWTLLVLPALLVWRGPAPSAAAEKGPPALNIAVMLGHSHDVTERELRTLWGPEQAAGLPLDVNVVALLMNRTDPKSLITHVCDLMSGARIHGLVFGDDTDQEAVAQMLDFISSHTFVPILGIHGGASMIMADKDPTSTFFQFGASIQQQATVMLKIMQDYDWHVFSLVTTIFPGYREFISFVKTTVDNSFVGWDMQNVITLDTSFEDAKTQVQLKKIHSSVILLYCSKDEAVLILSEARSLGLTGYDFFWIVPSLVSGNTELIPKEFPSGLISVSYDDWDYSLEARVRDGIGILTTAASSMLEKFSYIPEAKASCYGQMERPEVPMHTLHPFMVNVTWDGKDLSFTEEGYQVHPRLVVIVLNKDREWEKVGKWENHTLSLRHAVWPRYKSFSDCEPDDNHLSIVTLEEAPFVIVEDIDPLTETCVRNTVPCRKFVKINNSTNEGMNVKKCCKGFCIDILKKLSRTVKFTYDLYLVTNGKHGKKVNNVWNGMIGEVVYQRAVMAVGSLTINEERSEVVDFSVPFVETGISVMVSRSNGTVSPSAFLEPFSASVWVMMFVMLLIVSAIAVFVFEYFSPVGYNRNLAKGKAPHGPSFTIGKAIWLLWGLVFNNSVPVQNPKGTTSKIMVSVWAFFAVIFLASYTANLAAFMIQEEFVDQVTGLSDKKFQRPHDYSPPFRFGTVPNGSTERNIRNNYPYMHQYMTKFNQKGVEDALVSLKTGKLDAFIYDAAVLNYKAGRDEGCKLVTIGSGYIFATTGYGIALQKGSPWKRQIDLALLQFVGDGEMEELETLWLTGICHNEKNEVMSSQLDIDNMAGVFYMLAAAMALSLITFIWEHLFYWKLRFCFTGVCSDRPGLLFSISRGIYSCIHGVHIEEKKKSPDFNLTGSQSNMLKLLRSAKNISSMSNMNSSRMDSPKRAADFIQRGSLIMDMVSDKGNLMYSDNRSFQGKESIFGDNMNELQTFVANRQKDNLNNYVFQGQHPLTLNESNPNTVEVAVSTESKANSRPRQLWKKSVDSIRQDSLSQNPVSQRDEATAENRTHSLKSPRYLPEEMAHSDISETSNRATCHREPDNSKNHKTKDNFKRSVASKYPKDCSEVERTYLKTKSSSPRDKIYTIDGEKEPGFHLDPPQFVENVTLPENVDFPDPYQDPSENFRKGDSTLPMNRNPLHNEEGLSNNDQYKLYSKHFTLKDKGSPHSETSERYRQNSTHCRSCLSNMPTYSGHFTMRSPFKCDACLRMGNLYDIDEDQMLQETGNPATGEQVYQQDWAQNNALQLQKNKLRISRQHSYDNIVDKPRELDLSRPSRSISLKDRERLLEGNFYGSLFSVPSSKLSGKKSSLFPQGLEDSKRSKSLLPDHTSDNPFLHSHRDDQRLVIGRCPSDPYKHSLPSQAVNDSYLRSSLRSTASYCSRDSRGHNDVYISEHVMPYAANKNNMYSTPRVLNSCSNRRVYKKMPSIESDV", "assay": "Inhibition of human GluN2A receptor by FLIPR assay"}, "[26]": {"assay": "Drug concentration in Sprague-Dawley rat brain at 10 mg/kg, po measured after 2 hrs", "assay_type": "ADME, organism-based", "conditions": "read-out: Ct"}, "[27]": {"target": "Glutamate receptor ionotropic, NMDA 2B (Rattus norvegicus, UniProt Q00960)", "assay": "Displacement of 3-(3H) 1-(azetidin-1-yl)-2-(6- (4-fluoro-3-methyl-phenyl)pyrrolo-[…] pyridin-1yl)ethanone from GluN2B receptor in rat cortical membrane assessed as inhibition constant incubated for 2 hrs under shaking condition by liquid scintillator counter analysis", "assay_type": "cell membranes, Cortex"}},
  "note": "pIC50, pKi: −log10 of the molar value.",
  "data": [
    {"smiles": "FC(F)Oc1cc(-n2cc(COc3ncccn3)nn2)ccc1Cl", "values": [
      {"measurement": "pIC50", "setting": "Cytochrome P450 2C19", "value": "< 5.00"},
      {"measurement": "Vdss", "setting": "[1]", "value": 0.51, "unit": "L/kg"},
      {"measurement": "fraction unbound", "setting": "[2]", "value": 0.024},
      {"measurement": "pIC50", "setting": "Cytochrome P450 2C8", "value": "< 5.00"},
      {"measurement": "Kp uu at 0.25 h", "setting": "[3]", "value": 0.91},
      {"measurement": "Kp uu at 0.5 h", "setting": "[4]", "value": 0.78},
      {"measurement": "Drug metabolism", "setting": "[5]", "value": "Metabolite_Detected"},
      {"measurement": "pIC50", "setting": "[6]", "value": 7.96},
      {"measurement": "Kp uu at 2 h", "setting": "[7]", "value": 0.72},
      {"measurement": "Drug metabolism", "setting": "[8]", "value": "Metabolite_Detected"},
      {"measurement": "Occ", "setting": "Brain [9]", "value": 85, "unit": "%"},
      {"measurement": "concentration at 0.25 h", "setting": "[10]", "value": 1290, "unit": "ng/g"},
      {"measurement": "fraction unbound", "setting": "[11]", "value": 0.051},
      {"measurement": "Drug metabolism", "setting": "[12]", "value": "Metabolite_Detected"},
      {"measurement": "pIC50", "setting": "[13]", "value": "< 5.00"},
      {"measurement": "Occ", "setting": "Brain [14]", "value": 92, "unit": "%"},
      {"measurement": "concentration at 0.5 h", "setting": "[15]", "value": 1920, "unit": "ng/g"},
      {"measurement": "pIC50", "setting": "Cytochrome P450 2C9", "value": "< 5.00"},
      {"measurement": "bioavailability", "setting": "[16]", "value": 78, "unit": "%"},
      {"measurement": "pIC50", "setting": "[17]", "value": "< 5.00"},
      {"measurement": "Occ", "setting": "Brain [18]", "value": 71, "unit": "%"},
      {"measurement": "pIC50", "setting": "Cytochrome P450 1A2", "value": "< 5.00"},
      {"measurement": "pIC50", "setting": "[19]", "value": "< 5.00"},
      {"measurement": "concentration at 0.5 h", "setting": "[20]", "value": 5120, "unit": "ng/mL"},
      {"measurement": "Cmax", "setting": "[21]", "value": 808, "unit": "ng/mL"},
      {"measurement": "concentration at 0.25 h", "setting": "[22]", "value": 3040, "unit": "ng/mL"},
      {"measurement": "concentration at 2 h", "setting": "[23]", "value": 8650, "unit": "ng/mL"},
      {"measurement": "Occ", "setting": "Hippocampus", "value": "<10", "unit": "%"},
      {"measurement": "efflux ratio at 1 h, 5 µM", "setting": "MDR1 (P-gp)", "value": 1},
      {"measurement": "pIC50", "setting": "Cytochrome P450 2D6", "value": "< 5.00"},
      {"measurement": "Drug metabolism", "setting": "[24]", "value": "Metabolite_Detected"},
      {"measurement": "pIC50", "setting": "[25]", "value": "< 5.00"},
      {"measurement": "concentration at 2 h", "setting": "[26]", "value": 3010, "unit": "ng/g"},
      {"measurement": "pKi", "setting": "[27]", "value": 7.03}
    ]}
  ]
}
